We go through 34 compounds from ChEMBL document CHEMBL1147984, “Discovery, synthesis, and in vivo activity of a new class of pyrazoloquinazolines as selective inhibitors of aurora B kinase” (J Med Chem, 2007).

Converted amounts (≈) assume the structure as drawn. “And” between values parts separate entries of the source, which are not always exact repeats. Equal values may be shown once.

By Ki is commonly meant the equilibrium dissociation constant of an inhibitor or competing ligand from its target. One may read the clearance as the rate of elimination divided by the concentration. A low value points to inefficient removal. In general, logD refers to the decadic logarithm of the distribution of all forms, ionised or not, between an organic phase and buffer at a given pH. Lower therefore signals lower lipophilicity. By IC50 is commonly meant the concentration that inhibits the measured activity by half. A low value points to greater potency.

Data set [1] deals with T1, Aurora kinase A (Homo sapiens, UniProt O14965).
T1 sequence (O14965 whole entry): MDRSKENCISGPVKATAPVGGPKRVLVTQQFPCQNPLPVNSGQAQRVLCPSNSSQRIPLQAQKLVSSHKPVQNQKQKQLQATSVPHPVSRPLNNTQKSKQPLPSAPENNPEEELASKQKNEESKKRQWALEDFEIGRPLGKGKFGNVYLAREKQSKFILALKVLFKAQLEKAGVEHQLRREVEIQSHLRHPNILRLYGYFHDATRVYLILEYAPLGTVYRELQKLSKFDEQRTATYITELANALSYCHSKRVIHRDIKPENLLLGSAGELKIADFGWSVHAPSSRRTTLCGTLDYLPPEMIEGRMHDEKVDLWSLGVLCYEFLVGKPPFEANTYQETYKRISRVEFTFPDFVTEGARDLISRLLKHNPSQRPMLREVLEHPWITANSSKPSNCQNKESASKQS
Description: (§1) Inhibition of human recombinant Aurora A

Data set [2] deals with T1, Aurora kinase A. This is another data set of the same source.
Description: as §1
The nature of data set [3]: solubility (tris buffer pH9). Conditions: pH 9, read-out: S. The class given is physicochemical.
The next data set concerns the target Aurora kinase B (Homo sapiens, UniProt Q96GD4).
A further data set in a line: in vivo. Particulars: rat.
A further data set is described as follows: physchem. Conditions: octanol/water, pH 7.4.
Data set [4] can be described thus: protein binding. It counts as ADME. Particulars: read-out: PB (converted).
The conditions of data set [5]: rat.
Data set [6] is described as follows: P450 isoforms 3A4. The class given is ADME.
Data set [7] in a line: aqueous solubility. It counts as physicochemical. Particulars: read-out: S.

Aurora kinase B, sequence (Q96GD4 whole entry): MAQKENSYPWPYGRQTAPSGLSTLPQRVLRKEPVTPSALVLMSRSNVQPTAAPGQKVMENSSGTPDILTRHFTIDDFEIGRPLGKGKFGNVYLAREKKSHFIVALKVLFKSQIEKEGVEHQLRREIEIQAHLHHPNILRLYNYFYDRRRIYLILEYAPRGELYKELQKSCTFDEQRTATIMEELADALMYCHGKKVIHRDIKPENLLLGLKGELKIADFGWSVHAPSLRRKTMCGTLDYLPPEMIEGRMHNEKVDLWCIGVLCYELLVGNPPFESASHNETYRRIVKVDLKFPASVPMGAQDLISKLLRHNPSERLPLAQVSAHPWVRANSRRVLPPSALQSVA
Description for Aurora kinase B: Inhibition of human recombinant Aurora B
Description for SW-620: inhibition of histone-H3 phosphorylation following 24 hr incubation in SW620 tumor cells

With `COc1cccc(NC(=O)Cc2cc(Nc3ncnc4cc(OCCCN5CCC(CO)CC5)c(OC)cc34)[nH]n2)c1`, the affinity at SW-620, expressed as Ki, was 5500 nM.

Turning to `COc1cc2c(Nc3cc(CC(=O)Nc4ccc(F)cc4)[nH]n3)ncnc2cc1OCCCN1CCC(CO)CC1`, the Ki turned out to be 2000 nM at Aurora kinase A [1], 30 nM at Aurora kinase A [2] and 2600 nM on SW-620.

For `COc1cc2c(Nc3cc(CC(=O)Nc4cccc(F)c4F)[nH]n3)ncnc2cc1OCCCN1CCC[C@@H]1COP(=O)(O)O`, in [3], the solubility worked out at 25 mg/mL (≈ 38.6 mM).

With `COc1cc2c(Nc3cc(CC(=O)Nc4cccc(O)c4)[nH]n3)ncnc2cc1OCCCN1CCC(CO)CC1`, the Ki at Aurora kinase A [1] was 4000 nM; on Aurora kinase A [2] it was 140 nM; on SW-620 it was > 10000 nM.

For `COc1cc2c(Nc3cc(CC(=O)Nc4cccc(Cl)c4)[nH]n3)ncnc2cc1OCCCN1CCC(CO)CC1`, the figures for the Ki on Aurora kinase A [1], on Aurora kinase A [2] and at SW-620 were 450 nM, 8 nM and 1200 nM, respectively.

On to `CCCN(CCO)CCCOc1cc2ncnc(Nc3cc(CC(=O)Nc4cccc(F)c4)[nH]n3)c2cc1OC`, for which the Ki on Aurora kinase A [1] was 220 nM; on SW-620, 290 nM; at Aurora kinase B, 2 nM.

Regarding `COc1cc2c(Nc3cc(CC(=O)Nc4cccc(F)c4F)[nH]n3)ncnc2cc1OCCCN1CCC[C@@H]1CO`, the clearance in the data set “in vivo” is 63 mL/min/kg. In the data set “physchem”, this compound gave a log distribution coefficient (logD) of 2. For the same compound, the fraction unbound in [4] is 0.15. Further, the results for the Ki on Aurora kinase A [1], at SW-620 and at Aurora kinase B were 94 nM, 42 nM and 1 nM, respectively. The AB in data set [5] is 85%.

For the compound `COc1cc2c(Nc3cc(CC(=O)Nc4cccc(C(F)(F)F)c4)[nH]n3)ncnc2cc1OCCCN1CCC(CO)CC1`, the Ki at Aurora kinase A [2] amounted to 13 nM; at SW-620 it was 1800 nM; on Aurora kinase B, 510 nM.

With `COc1cc2c(Nc3ncc(CC(=O)Nc4cccc(F)c4)s3)ncnc2cc1OCCCN1CCC(CO)CC1`, in data set [4], the fraction unbound was 0.02. Also, affinity at SW-620 was put at a Ki of 5 nM.

In the case of `COc1cc2c(Nc3cc(CC(=O)Nc4cccc(F)c4F)[nH]n3)ncnc2cc1OCCCN(CCO)CC(C)C`, in [6], the IC50 came to 400 nM. For the same compound, the logD in “physchem” came to 3.6. Also, the Ki on Aurora kinase A [1] is 18 nM; at SW-620 it was < 1 nM; on Aurora kinase B it was < 1 nM.

On to `CCN(CCO)CCCOc1cc2ncnc(Nc3cc(CC(=O)Nc4cccc(F)c4F)[nH]n3)c2cc1OC`, for which, in data set [6], the IC50 is > 10000 nM. Further, the logD in “physchem” stood at 1.9. Besides, the fraction unbound in data set [4] was 0.17. The Ki was 360 nM on Aurora kinase A [1], 45 nM on SW-620 and < 1 nM on Aurora kinase B.

On to `CCCN(CCCOc1cc2ncnc(Nc3cc(CC(=O)Nc4cccc(F)c4F)[nH]n3)c2cc1OC)CCOP(=O)(O)O`, for which the solubility in data set [3] is 25 mg/mL (≈ 38.5 mM).

For `CCCN(CCO)CCCOc1ccc2c(Nc3cc(CC(=O)Nc4cccc(F)c4)[nH]n3)ncnc2c1`, the Ki was 980 nM on Aurora kinase A [1], 7 nM at SW-620 and < 1 nM at Aurora kinase B.

In the case of `COc1cc2c(Nc3cc(CC(=O)Nc4cccc(F)c4F)[nH]n3)ncnc2cc1OCCCN1CCC(CO)CC1`, the affinity at SW-620 corresponds to a Ki of 540 nM.

Regarding `COc1cc2c(Nc3cc(CC(=O)Nc4cccc(F)c4F)[nH]n3)ncnc2cc1OCCCN1CCC[C@H]1CO`, the Ki on Aurora kinase A [1] was 39 nM; on SW-620 it was 45 nM; at Aurora kinase B, < 1 nM.

In the case of `COc1cc2c(Nc3cc(CC(=O)Nc4cccc(F)c4F)[nH]n3)ncnc2cc1OCCCN1CCN(CCO)CC1`, the results for the Ki on Aurora kinase A [1], at SW-620 and on Aurora kinase B were 55 nM, 71 nM and < 1 nM, respectively.

Consider `COc1cc2c(Nc3cc(CC(=O)Nc4cccc(F)c4)[nH]n3)ncnc2cc1OCCCN1CCC[C@@H]1CO`, for which, in [4], the fraction unbound is 0.05. Further, the Ki is 110 nM at Aurora kinase A [1], 330 nM at SW-620 and 1 nM on Aurora kinase B.

Consider `COc1cc2c(Nc3cc(CC(=O)Nc4cccc(F)c4F)[nH]n3)ncnc2cc1OCCCN1CCC(CCO)CC1`, for which the Ki on Aurora kinase A [1] was 280 nM; on SW-620 it was 130 nM; at Aurora kinase B it was < 1 nM.

`COc1cc2c(Nc3cc(CC(=O)Nc4cc(F)cc(F)c4)[nH]n3)ncnc2cc1OCCCN1CCC(CO)CC1` returned a Ki on SW-620 of 370 nM.

As for `COc1cc2c(Nc3cc(CC(=O)Nc4cccc([N+](=O)[O-])c4)[nH]n3)ncnc2cc1OCCCN1CCC(CO)CC1`, the figures for the Ki at Aurora kinase A [1], at Aurora kinase A [2] and on SW-620 were 890 nM, 39 nM and > 10000 nM, respectively.

In “physchem”, `CCN(CCO)CCCOc1cc2ncnc(Nc3cc(CC(=O)Nc4cccc(F)c4)[nH]n3)c2cc1OC` yielded a logD of 2.1. Further, the fraction unbound in [4] is 0.05. The Ki on Aurora kinase A [1] stood at 190 nM; on SW-620 it was 270 nM; on Aurora kinase B it was 1 nM.

For the compound `COc1cc2c(Nc3cc(CC(=O)Nc4cccc(F)c4)[nH]n3)ncnc2cc1OCCCNCCO`, the figures for the Ki at Aurora kinase A [1], at SW-620 and on Aurora kinase B were 690 nM, 630 nM and 1 nM, respectively.

On to `COc1cc2c(Nc3cc(CC(=O)Nc4cccc(F)c4)[nH]n3)ncnc2cc1OCCCN(C)CCO`, for which the inhibition constant Ki at Aurora kinase A [1] is 65 nM; at SW-620, 120 nM; at Aurora kinase B, < 1 nM.

As for `COc1cc2c(Nc3cc(CC(=O)Nc4ccccc4F)[nH]n3)ncnc2cc1OCCCN1CCC(CO)CC1`, the Ki on Aurora kinase A [1] was 1400 nM and 470 nM; at Aurora kinase A [2], 14 nM.

Consider `O=C(Cc1cc(Nc2ncnc3cc(OCCCN4CCC[C@@H]4COP(=O)(O)O)ccc23)n[nH]1)Nc1cccc(F)c1F`, for which the solubility in data set [3] amounted to 25 mg/mL (≈ 40.5 mM).

`COc1cc2c(Nc3ncc(CC(=O)Nc4cccc(F)c4)s3)ncnc2cc1OCCCN1CCC(COP(=O)(O)O)CC1`: the solubility in data set [7] is > 10000 µg/mL.

As to `COc1cc2c(Nc3cc(CC(=O)Nc4cccc(F)c4F)[nH]n3)ncnc2cc1OCCCN1CCC(O)CC1`, the Ki on Aurora kinase A [1] was 220 nM; at SW-620 it was 78 nM; at Aurora kinase B, < 1 nM.

In the case of `O=C(Cc1cc(Nc2ncnc3cc(OCCCN4CCC[C@@H]4CO)ccc23)n[nH]1)Nc1cccc(F)c1F`, in “in vivo”, the clearance was found to be 15 mL/min/kg. Besides, in the data set “physchem”, the logD worked out at 2.1. The values for the Ki at Aurora kinase A [1], on SW-620 and at Aurora kinase B were 950 nM, 5 nM and < 1 nM, respectively. The compound also showed an AB in [5] of 89%.

With `O=C(Cc1cc(Nc2ncnc3cc(OCCCN4CCC[C@@H]4CO)ccc23)n[nH]1)Nc1cccc(F)c1`, the values for the Ki at Aurora kinase A [1], at SW-620 and on Aurora kinase B were 1400 nM, 24 nM and < 1 nM, respectively.

`CCN(CCCOc1ccc2c(Nc3cc(CC(=O)Nc4cccc(F)c4)n[nH]3)ncnc2c1)CCOP(=O)(O)O` [BARASERTIB]: the solubility in [3] is 25 mg/mL (≈ 42.5 mM).

For the compound `COc1cc2c(Nc3cc(CC(=O)Nc4cccc(C#N)c4)[nH]n3)ncnc2cc1OCCCN1CCC(CO)CC1`, the results for the Ki at Aurora kinase A [1], at Aurora kinase A [2] and at SW-620 were 2600 nM, 83 nM and > 10000 nM, respectively.

On to `CCN(CCO)CCCOc1ccc2c(Nc3cc(CC(=O)Nc4cccc(F)c4F)[nH]n3)ncnc2c1`, for which the inhibitory constant (Ki) on Aurora kinase A [1] was 160 nM; on SW-620, 7 nM; at Aurora kinase B, < 1 nM.

As to `CCCN(CCO)CCCOc1ccc2c(Nc3cc(CC(=O)Nc4cccc(F)c4F)[nH]n3)ncnc2c1`, the Ki is 350 nM on Aurora kinase A [1], 2 nM at SW-620 and < 1 nM at Aurora kinase B.

As for `COc1cc2c(Nc3cc(CC(=O)Nc4ccccc4)[nH]n3)ncnc2cc1OCCCN1CCC(CO)CC1`, the Ki is 1600 nM and 1200 nM at Aurora kinase A [1]; 18 nM on Aurora kinase A [2].
